Results published in patent US4952598A, “3-phenyl indolinone derivatives, processes for their preparation, medicaments containing them, and their use” (Hoechst Aktiengesellschaft, priority 1985, dated 1990).
Counter-ions that a name gives are not always drawn.

Molecular target: calcium channels
Test: 3H-nitrendipine binding (nitrendipine displacement) test
Settings: 3H-nitrendipine 0.1 nM, rat brain cortex membranes, pH 7.4, 25° C., 60 min
Protocol: Their calcium-antagonistic activity can be shown in the biochemical test model of displacement of tritium-labeled nitrendipine.
This entails membrane preparations which contain isolated calcium channels being loaded with labeled substance.
After incubation with the test substance, the radioactivity which has been released into the supernatant solution is determined. […] The compounds of the formula I are likewise very active in other test models with which a calcium-antagonistic action can be detected, for example the coronary blood flow in the isolated guinea pig heart, or the action potential of the isolated guinea pig papillary muscle.
The test of the activity of substances in the ^3 H-nitrendipine binding test was carried out in a membrane preparation obtained from the cortex of the rat brain and washed several times, the method used essentially being that described by R.J. Gould et al. (Proc. Natl. Acad. Sci. USA 79, 3656 [1982]). The membrane suspension was diluted 1:1500 with TRIS buffer pH 7.4 (50 mM TRIS.HCl, 150 mM NaCl, 1.0 mM CaCl2 and 0.001% by weight, based on TRIS.HCl, NaCl and CaCl2 in solution, of a neutral surface-active substance such as, for example, Genapol^(R)) was incubated in 5 ml portions with ^3 H-nitrendipine (0.1 nM in the test, specific activity 81.3 Ci/mmol) in a shaking water bath at 25° C. for 60 min. The membrane fractions were removed by vacuum filtration through Whatman GF/F glass fiber filters, and the radioactivity was measured in a liquid scintillation counter. The unspecific ^3 H-nitrendipine binding was determined in the presence of 1 μM nifedipine.

In order of rising IC50:
1. CC(C)C1(c2ccccc2OCCCCN2CCN(CCCC(c3ccc(F)cc3)c3ccc(F)cc3)CC2)C(=O)N(C)c2ccccc21 (stereo not shown) [Example 5, 3-[2-(4-(4-(4-bis(4-fluorophenyl)butyl)-1-piperazinyl)butoxy)phenyl]-3-isopropyl-1-methylindolin-2-one dihydrochloride]  13 nM
2. COc1ccc(CCN(C)CCCCOc2ccccc2C2(C(C)C)C(=O)N(C)c3ccccc32)cc1OC (stereo not shown) [Example 3, 3-[2-(4-(N-(2-(3,4-dimethoxyphenyl)ethyl)-N-methylamino)butoxy)-phenyl]-3-isopropyl-1-methylindolin-2-one hydrochloride]  22 nM
3. COc1cc(CN2CCN(CCCCOc3ccccc3C3(C(C)C)C(=O)N(C)c4ccccc43)CC2)cc(OC)c1OC (stereo not shown) [Example 6, 3-Isopropyl-1-methyl-3-[2-(4-(4-(3,4,5-trimethoxybenzyl)-1-piperazinyl)butoxy)phenyl)indolin-2-one dichydrochloride]  44 nM
4. COc1ccc(CCN(C)CCCCOc2ccccc2C2(Cc3ccccc3)C(=O)N(C)c3ccccc32)cc1OC (stereo not shown) [Example 1, 3-Benzyl-3-[2-(4-(N-(2-(3,4-dimethoxyphenyl)ethyl)-N-methylamino)butoxy)phenyl]-1-methylindolin-2-one hydrochloride]  8000 nM
